Results: patent US10688119B2, “Inhibitors of PCSK9 for treatment of lipoprotein metabolism disorders” (Aarhus Universitet, priority 2015, dated 2020)
Entries after “also recorded” stand apart in the source; their conditions may differ. Like-named read-outs stand apart in the source and are kept apart here. Values belong to the molecule of their own block, whether it stands above or below them.

Key:
[1] = heparin affinity chromatography of PCSK9 and variants; format: binding; conditions: conditioned media, Heparin Sepharose CL-6B beads
Experimental: Purified PCSK9 was loaded onto a 5 ml HiTrap Heparin HP column (GE Healthcare) in PBS. The column was connected to an Äkta Prime and washed with 5 column volumes of 10 mM NaH2PO4 (pH 7.4). PCSK9 was eluted using a linear gradient of 10 mM NaH2PO4 (pH 7.4) and 2 M NaCl and fractions were analyzed by SDS-PAGE. Based on the measured conductivity, the elution profile was transformed to a function of NaCl concentration using the transformation coefficient 0.065 mS/mM NaCl. PCSK9 was retained on the heparin column and eluted at a NaCl concentration of approximately 500 mM (FIG. 2E), indicating a strong and highly specific interaction with heparin.
(§1) In a different experiment, conditioned media from HepG2 cells were incubated with Heparin Sepharose CL-6B beads (GE Healthcare) in 10 mM NaH2PO4 (binding buffer). Following overnight incubation on a rotor at 4⊐ C, beads were washed in binding buffer before batch elution of heparin bound proteins in increasing concentration of NaCl. PCSK9 in input, flow through, and elution fractions were evaluated by Western blotting.
as §1, with “Conditioned” for “In a different experiment, conditioned”, “CHO” for “HepG2”, “cells transfected with PCSK9 variants of interest” for “cells”, “4° C.,” for “4⊐ C,”

[2] = molecular target: PCSK9 (Homo sapiens, UniProt Q8NBP7); experiment: Microscale Thermophoresis (MST) equilibrium binding to PCSK9; conditions: 100 nM labelled PCSK9, PBS+0.05% Tween-20; for Kd: read-out: KD (affinity for PCSK9, MST)
PCSK9, sequence (Q8NBP7 153-692): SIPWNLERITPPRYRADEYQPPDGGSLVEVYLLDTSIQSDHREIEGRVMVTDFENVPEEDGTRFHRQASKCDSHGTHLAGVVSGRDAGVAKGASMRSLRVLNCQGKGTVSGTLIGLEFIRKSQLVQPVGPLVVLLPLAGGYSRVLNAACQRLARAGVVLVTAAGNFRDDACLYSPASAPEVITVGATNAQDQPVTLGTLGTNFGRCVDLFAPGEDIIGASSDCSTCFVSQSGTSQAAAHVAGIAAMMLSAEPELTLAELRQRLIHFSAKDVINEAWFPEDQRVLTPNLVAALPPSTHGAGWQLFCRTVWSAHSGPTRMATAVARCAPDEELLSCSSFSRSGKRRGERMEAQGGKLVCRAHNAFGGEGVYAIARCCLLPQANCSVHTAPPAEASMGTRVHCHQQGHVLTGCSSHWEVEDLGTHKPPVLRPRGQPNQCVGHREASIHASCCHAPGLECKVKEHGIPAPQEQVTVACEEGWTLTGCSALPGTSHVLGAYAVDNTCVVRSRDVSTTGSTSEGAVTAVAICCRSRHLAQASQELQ
Experimental: PCSK9 was labeled using the MO-L003 Monolith Blue-NHS labeling kit (NanoTemper Technologies) and a labeling efficiency of 1:1 molar ratio of protein to dye was achieved. PCSK9 was applied at a final concentration of 100 nM. […] MST measurements were performed in standard-treated capillaries (NanoTemper Technologies) on a Monolith NT.115 instrument (NanoTemper Technologies) using 20% LED and 80% MST power. Laser on and off times were 5 s and 35 s, respectively. Negative controls were performed using 100 nM of labelled PCSK9 in MST buffer in all 16 capillaries under the same conditions as mentioned above. […] For each binding partner, the sigmoidal dose-response curves were fitted with GraphPad Prism 6 to yield an average KD value.

[3] = tested on: LDLR in liver; experiment: liver LDLR levels in mice after intravenous PCSK9 (Western blot); format: in vivo, mice (BALB6/cJRj); conditions: for liver LDLR level / PCSK9 induced degradation of LDLR in vivo: 1 hour after PCSK9 10 μg, heparin 50 U or suramin 300 μg co-injected, heparinase I 30 U infused before
Experimental: To test the effect of enzymatic removal of heparan sulfate GAGs on PCSK9 activity in vivo 10-12 week-old male BALB6/cJRj mice were infused with heparinase I (30 U) administered through a tail vein catheter 5 min prior injection of PCSK9 (10 μg). In control mice the heparinase injection and/or the PCSK9 injection were replaced with an injection of 0.9% saline. During heparinase infusion, mice were lightly anaesthetized with isoflurane continuously administered through a mask.
Mice (BALB6/cJRj) were subjected to a single intravenous administration (tail vein) of 10 μg human recombinant PCSK9 alone or in combination with heparin (50 U). One hour post injection mice were sacrificed and liver tissues were collected.

[4] = tested on: HepG2 cells; experiment: uptake of Bodipy-labelled LDL particles in HepG2 cells; format: cell-based, human; conditions: suramin 200 μg/ml overnight, then 4 hours 10 ng/ml Bodipy LDL
Experimental: FIG. 12: Bar graphs showing the relative fluorescence signal in HepG2 cells after overnight incubation with suramin (200 μg/ml) following 4 hours incubation with 10 ng/ml LDL particles labeled with fluorescence dye Bodipy.

[5] = tested on: apoE−/− mice; conditions: 4-week treatment, cited from earlier work
[6] = tested on: J774 macrophages; design: dose or concentration left out as unconfirmed; conditions: cited from earlier work
[7] = tested on: LDLR in HepG2 cells; experiment: LDLR levels in HepG2 cells by Western blot/densitometry (PCSK9 induced LDLR degradation)
Experimental: (§2) Purified PCSK9 variants were tested in a cell assay to test their ability to induce degradation of LDLR compared to wild-type PCSK9. Induction of LDLR degradation was analyzed by incubation of HepG2 cells with wild type PCSK9 (WT) or the above PCSK9 mutants and LDLR levels were assessed by Western blotting. HepG2 cells were seeded at a density 250.000 cells per well in 12-well plates. […] Cells were harvested and lysed following 18 hours incubation and LDLR levels were assessed by Western blotting and quantification by densitometry.
The PCSK9 inhibitory effect of overnight incubation with suramin (0-200 μg/ml) was tested in HepG2 cells (FIG. 9 A-B).

[8] = tested on: LDLR in HepG2 cells; experiment: LDLR degradation in HepG2 cells induced by PCSK9 WT or mutant; format: cell-based, human; conditions: 10 nM PCSK9, 18 hours
Experimental: as §2

[9] = tested on: cell surface PCSK9 on HepG2 cells; experiment: surface PCSK9 immunostaining of non-permeabilized HepG2 cells stably expressing PCSK9; format: cell-based, human; conditions: heparinase I 0.0002 UN/ml, 1 h
Experimental: We speculated that HSPG might be involved in the capture of PCSK9. Thus, we treated human hepatocyte-derived HepG2 cells stably expressing PCSK9 with heparinase I. The enzyme heparinase I cleaves heparan sulfate GAG chains at the 1,4 O-linkage between uronic acid and D-glucosamine, thereby removing cell surface heparan sulfate chains.
HepG2 cells stably transfected with PCSK9 were seeded at 50.000 cells per coverslip and incubated overnight before addition of heparinase I (Sigma Aldrich/H2519) in PBS (0.0002 UN/ml) or PBS alone. Cells were incubated for 1 h. at 37⊐ C, before fixation in 4% paraformaldehyd and immunostaining of non-permeabilized cells with primary and secondary antibodies. Nuclei were visualized with Hoechst dye (Sigma Aldrich). Images were acquired on a Zeiss LSM780.

[10] = molecular target: T1, R93R96R97R104R105H139 PCSK9 mutant and variants (Homo sapiens, UniProt Q8NBP7, H139A/R104A/R105A/R93A/R96A/R97A); experiment: immunoprecipitation of 35S-mutant PCSK9 and PCSK9 variants; format: binding; conditions: 500 μl conditioned hybridoma media
T1 construct: expressed in transfected cells
Experimental: Western blot of GAPDH is shown as loading control. (B) Western Blot showing LDLR levels in liver of mice 1 hour afterintravenous administration of 10 μg PCSK9 alone or in combination with 50 U Heparin. 50 μg membrane preparations were loaded. As control is shown Western Blot for sortilin, a PCSK9 receptor previously shown not to be target of PCSK9 induced degradation. (C) Quantification of B) Bands were quantified by densitometry and dot plot show the individual level of each sample in percent of vehicle (0.9% NaCl) injected controls with mean values and SEM. […] (D) Autoradiography (16 h exposure) showing immunoprecipitation of native human ^35S labeled PCSK9 by serum (1 μl) from three rats immunized with DNA encoding rat PCSK9 with human HSPG binding domain. As negative controls were used preimmune serum from the animals. (E) Western Blot showing LDLR in HepG2 cells after overnight incubation with preimmune or immune IgG (1 μg/ml). […] (F) Autoradiography (16 h exposure) showing immunoprecipitation of human ^35S-PCSK9 by 24 individual mAbs (500 μl conditioned hybridoma media) selected in ELISA screening performed by Aldevron. […] (G) Bar graphs showing LDLR levels (average of 2-4 experiments with SEM) in HepG2 cells incubated with mAbs (1:10 dilution of conditioned hybridoma media) as analysed by Western Blot. Twelve individual mAb clones give an approximately two-fold increase LDLR. (H) Autoradiography (16 h exposure) showing immunoprecipitation of human ^35S-mutant PCSK9 (with R93R96R97R104R105H139 mutated to alanine residues) by 12 individual mAbs (500 μl conditioned hybridoma media) all showing PCSK9 inhibitory effect. As control was used a polyclonal antibody (pAb, AF3888 from R&D systems). […] As control was used R&D Systems AF3888 (pAb).
These 12 clones were tested to see whether they can bind an R93R96R97R104R105H139 PCSK9 mutant (FIG. 8H).

[11] = suramin 50 and PPADS 25 mg·kg-1·day-1

Molecule: Cc1ccc(C(=O)Nc2ccc(S(=O)(=O)O)c3cc(S(=O)(=O)O)cc(S(=O)(=O)O)c23)cc1NC(=O)c1cccc(NC(=O)Nc2cccc(C(=O)Nc3cc(C(=O)Nc4ccc(S(=O)(=O)O)c5cc(S(=O)(=O)O)cc(S(=O)(=O)O)c45)ccc3C)c2)c1 [suramin]
- Kd [2]: 190 µM
- liver LDLR level / PCSK9 induced degradation of LDLR in vivo [3]: significantly higher level of LDLR
- uptake of fluorescently labelled LDL [4]: increased cellular uptake of fluorescently labelled LDL particles; also recorded: increases the uptake of LDL two-fold
- plaque size ([5]; suramin 50 and PPADS 25 mg·kg-1·day-1, listed as Suramin): reduce plaque size
- plaque size [5, 11]: reduces plaque size
- block of UDP effect on iNOS and interleukin-6 [6]: blocked
- LDLR level compared with statins ([7]; 100 μM suramin vs mevastatin and simvastatin, 24 and 48 hours): higher level of LDLR that cells incubated with statins
- LDLR level up regulated ([7]; suramin 200 μg/ml, overnight): 15 times

Molecule: Cc1nc(N=Nc2ccc(S(=O)(=O)O)cc2S(=O)(=O)O)c(COP(=O)(O)O)c(C=O)c1O [PPADS, pyridoxal-phosphate-6-azophenyl-2′-4′-disulphonic acid]
- plaque size ([5]; suramin 50 and PPADS 25 mg·kg-1·day-1, listed as PPDAS): reduce plaque size
- plaque size [5, 11]: reduces plaque size
- block of UDP effect on iNOS and interleukin-6 [6]: blocked

Molecule: CO[C@H]1O[C@H](COS(=O)(=O)O)[C@@H](O[C@@H]2O[C@@H](C(=O)O)[C@@H](O[C@H]3O[C@H](COS(=O)(=O)O)[C@@H](O[C@@H]4O[C@H](C(=O)O)[C@@H](O[C@H]5O[C@H](COS(=O)(=O)O)[C@@H](O)[C@H](O)[C@H]5NS(=O)(=O)O)[C@H](O)[C@H]4O)[C@H](OS(=O)(=O)O)[C@H]3NS(=O)(=O)O)[C@H](O)[C@H]2OS(=O)(=O)O)[C@H](O)[C@H]1NS(=O)(=O)O [Arixtra, Fondaparinux]
- LDLR level in HepG2 cells ([7]; Arixtra 25-250 μg/ml, 24 h): elevated level of LDLR
- LDLR level in HepG2 cells ([7]; Arixtra 25-250 μg/ml, 24 h, listed as Fondaparinux): increased levels of LDLR

Molecule: Mutant R93R104R105H139A: PCSK9 alanine substitution variant
- binding to heparin (affinity chromatography) [1]: do not bind heparin; also recorded: did not bind to heparin

B1: heparinase I: enzyme that cleaves heparan sulfate GAG chains (Sigma Aldrich/H2519) (protein, UniProt Q05819 22-384, looked up)
Heparin lyase I: QQKKSGNIPYRVNVQADSAKQKAIIDNKWVAVGINKPYALQYDDKLRFNGKPSYRFELKAEDNSLEGYAAGETKGRTELSYSYATTNDFKKFPPSVYQNAQKLKTVYHYGKGICEQGSSRSYTFSVYIPSSFPDNATTIFAQWHGAPSRTLVATPEGEIKTLSIEEFLALYDRMIFKKNIAHDKVEKKDKDGKITYVAGKPNGWKVEQGGYPTLAFGFSKGYFYIKANSDRQWLTDKADRNNANPENSEVMKPYSSEYKTSTIAYKMPFAQFPKDCWITFDVAIDWTKYGKEANTILKPGKLDVMMTYTKNKKPQKAHIVNQQEILIGRNDDDGYYFKFGIYRVGNSTVPVTYNLSGYSETAR
- liver LDLR level / PCSK9 induced degradation of LDLR in vivo [3]: completely protected LDLR from PCSK9-induced degradation; also recorded: completely inhibits PCSK9 induced degradation of LDLR
- intensity of surface PCSK9 staining [9]: marked decrease in the intensity of surface PCSK9 staining

Further lines, with some results ahead:

- binding to heparin (affinity chromatography) [1]: less affinity for heparin
Molecule: Mutant R93: PCSK9 alanine substitution variant

- binding to heparin (affinity chromatography) [1]: bound heparin Sepharose
Molecule: WT PCSK9: wild type human PCSK9 (SEQ ID NO: 1)
- LDLR level in liver in percent of vehicle injected controls ([3]; 1 hour after intravenous 10 μg PCSK9 alone or with 50 U Heparin, n=7 mice/group): 24.0±4.04%
- LDLR levels in HepG2 cells incubated with PCSK9 variant [8]: significantly lower levels of LDLR

- KD (affinity for PCSK9, MST) [2]: no affinity
Molecule: dextran [non-sulfated dextran]

- Kd [2]: 180 µM
Molecule: dextran sulphate [dextran sulfate]
- LDLR level in HepG2 cells ([7]; dextran sulphate 0-200 μg/ml, 24 hour): concentration dependent increase of LDLR
- LDLR level in HepG2 cells ([7]; dextran sulphate 0-200 μg/ml, 24 hour, listed as dextran sulphate): potently increase the cellular level of LDLR
- plateau of cellular LDLR compared to vehicle control ([7]; dose-dependent, HepG2 cells): around 400%

- binding of R93R96R97R104R105H139 PCSK9 mutant (immunoprecipitation) [10]: not able to bind this mutant
B2: mAb 8HA: rat monoclonal antibody against the HSPG binding domain; VH SEQ ID NO: 9, VK SEQ ID NO: 3 (antibody, V domains shown)
VH: QVTLKESGPGILQPSQTLSLTCSFSGFSLSSSGICVSWIRQPSGKGLEWLATICWEDSKGYNPSLKNRLTISKDTSNNQALLRITSVDTADTAIYYCARVYYWYFDFWGPGTMVTVSS
VL: DIVMTQSPSLLSASVGDRVTLSCKGSQNINNYLAWYQQKLGEAPKLLIYNTNSLQTGIPSRFSGSGSGTDCTLTIRSLQPEDVATYFCYQYNNGNTFGGGTKLELK
- increase of cellular LDLR ([7]; mAbs, 1:10 dilution of conditioned hybridoma media): approximately two fold
